The values that follow are results of earlier work, collected in patent publication US20030203043A1 (priority 2002, published 2003).

Read-outs that look alike come from different tables or passages of the source.

For series [1] the following is noted: supplementation.
The conditions of series [2]: female rats.
Series [3] concerns the target T1, aromatase (Homo sapiens, UniProt P11511).
T1 sequence (P11511 1-503): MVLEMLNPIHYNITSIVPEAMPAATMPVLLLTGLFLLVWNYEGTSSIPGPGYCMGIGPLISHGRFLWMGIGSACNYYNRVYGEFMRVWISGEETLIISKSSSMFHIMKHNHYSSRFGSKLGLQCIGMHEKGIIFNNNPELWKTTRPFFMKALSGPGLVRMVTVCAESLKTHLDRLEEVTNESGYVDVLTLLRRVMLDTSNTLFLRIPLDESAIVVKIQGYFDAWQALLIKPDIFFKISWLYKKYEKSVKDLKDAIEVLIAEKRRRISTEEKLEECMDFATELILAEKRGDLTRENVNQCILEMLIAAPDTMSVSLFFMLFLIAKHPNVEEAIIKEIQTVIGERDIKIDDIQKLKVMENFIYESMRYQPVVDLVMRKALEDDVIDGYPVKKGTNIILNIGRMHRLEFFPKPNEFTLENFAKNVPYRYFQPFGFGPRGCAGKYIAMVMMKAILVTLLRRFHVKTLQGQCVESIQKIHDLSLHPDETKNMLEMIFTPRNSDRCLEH
The following applies: relative to chrysin, AG, ANG.

Assay in series [4]: not given
The source holds these as a separate data set.

The conditions of series [5]: hypogonadal men; for waking erection: Asian group; for sexual interest and activity, spontaneous erection: Caucasian group.
The conditions of series [6]: prostate and seminal vesicle weights.
The conditions of series [7]: levator ani muscles.
For series [8] the following is noted: 300 mg/wk, six weeks; TE shoulders; ND shoulders and chest.
The conditions of series [9]: pharmacological doses.
The conditions of series [10]: in vivo.
For series [11] the following is noted: in vivo. This is another data set of the same source.
For series [12] the following is noted: compared with placebo.

With `C[C@]12CC[C@H]3[C@@H](CCC4=C[C@@H](O)CC[C@@]43C)[C@@H]1CC[C@@H]2O` [4-androstenediol], the “urine testosterone concentration relative to 4-androstenedione” value (supplementation) was 10 fold.

With `C[C@]12CCC(=O)C=C1CC[C@@H]1[C@@H]2CC[C@]2(C)C(=O)CC[C@@H]12` [4-androstenedione], the serum testosterone entry in series [1] is “elevations in serum testosterone”.

With `C[C@]12CC[C@H]3[C@@H](CC=C4C[C@@H](O)CC[C@@]43C)[C@@H]1CC[C@@H]2O` [5-androstenediol], in series [2], the “lipid deposition or heat production” value is “did not have a significant effect” and the “proportion of protein in the body composition” value is on record as “increased the proportion of protein”.

As for `C[C@]12CC[C@H]3[C@@H](CCC4=CC(=O)CC[C@@H]43)[C@@H]1CCC2=O` [19-nor-androstenedione], the excretion products result (in vivo) was “excreted mainly as nor-androsterone and nor-etiocholanolone”.

With `COc1ccc(-c2coc3cc(O)cc(O)c3c2=O)cc1` [Biochanin A, 5,7-dihydroxy-4′-methoxyisoflavone], the aromatase inhibition entry in series [3] was “inhibited aromatase, but to a lesser degree”.

In the case of `C[C@]12CC[C@H](O)CC1=CC[C@@H]1[C@@H]2CC[C@]2(C)C(=O)CC[C@@H]12` [DHEA, dehydro-epiandrosterone], in series [4] (50 mg dose), the plasma testosterone result is on record as “levels similar to those observed in young women”. Further, in series [4] (50 mg or 200 mg DHEA), the “delta 5-androstenediol plasma level” value is “small increase”; the “increase of plasma delta 4-androstenedione” value is “significant and dose dependent”; the “plasma estrogens, particularly estradiol” value was “significant and dose dependent increase”. Moreover, in [4] (200 mg dose), the plasma testosterone entry is reported as “slightly below the levels observed in normal men”. Also, in series [4] (both doses), the “increase of plasma dihydrotestosterone levels” value is recorded as “small”.

`C[C@@H]1CC2=CC(=O)CC[C@@H]2[C@H]2CC[C@]3(C)[C@@H](O)CC[C@H]3[C@@H]21` [MENT, 7α-methyl-19-nor-testosterone]: in series [5], the waking erection entry was “increased waking erection”; the “sexual interest and activity, spontaneous erection” value is recorded as “significant increases”. Moreover, the “androgenic potency relative to testosterone” value in [6] was “four- to five-times”. Further, the “anabolic potency relative to testosterone” value in [7] is reported as “ten-times”.

`CCCCCCC(=O)O[C@H]1CC[C@H]2[C@@H]3CCC4=CC(=O)CC[C@]4(C)[C@H]3CC[C@]12C` [TE, testosterone enanthate]: in series [5], the waking erection entry is “increased waking erection”; the “sexual interest and activity, spontaneous erection” value is listed as “significant increases”. In addition, the body circumferences result in series [8] was “significant increases”.

Regarding `C[C@]12CC[C@H]3[C@@H](CCC4=CC(=O)CC[C@@]43C)[C@@H]1CC[C@@H]2O` [Testosterone], in series [2], the “lipid deposition or heat production” value is on record as “did not have a significant effect” and the “proportion of protein in the body composition” value is “increased the proportion of protein”.

On to `CCCCCCCCCC(=O)O[C@H]1CC[C@H]2[C@@H]3CCC4=CC(=O)CC[C@@H]4[C@H]3CC[C@]12C` [nandrolone decanoate], for which the “total weight, lean body mass, body cell mass, muscle size, and strength” value in series [9] is given as “significant gains”. Besides, the body circumferences entry in [8] was “significant increases”.

On to `C[C@]12CC[C@H]3[C@@H](CCC4=CC(=O)CC[C@@H]43)[C@@H]1CC[C@@H]2O` [nandrolone, 19-nor-testosterone], for which the effect on sperm entry in series [10] is listed as “azoospermia”. For the same molecule, the “decrease in HDL-cholesterol” value in series [11] was 25-27%. Besides, in [2], the energy expenditure entry was “increased energy expenditure”. In addition, in [12], the lean body mass result is on record as “increased significantly”.
